The test system of data set [1] is C. albicans ATCC 10231. Kind of data set: In vitro susceptibility testing, microdilution broth (EUCAST), C. albicans control strain. Type of data set: cell-based, Candida albicans. As to conditions: for inhibition at 100 µM: ATCC10231, 24 h; for antifungal activity against C. albicans growth, in words: screen at 100 μM; for IC50: mean and 95% confidence interval. As to the method: The in vitro antifungal activity of the chalcones was evaluated by a microdilution broth method in accordance with the guidelines provided by the EUCAST Edef 7.3 [22]. Briefly, all strains were cultured on Sabauraud dextrose, then inocula, prepared at 0.5 McFarland, were diluted 1:20 in RPMI-1640 medium (Gibco®, ThermoFisher Scientific Inc., Waltham, MA, USA), containing glucose 2%, 0.3% levo-glutamine buffered to pH 7.0 with 0.165 M 3-(N-morpholino)propanesulfonic acid (MOPS) to yield 1-5 × 10^5 cells/mL. A total of 100 µL of the yeast suspension was inoculated in a 96-well microplate and incubated with 100 µL of serially 2-fold dilution of the compound in the range 200–6.25 µM. The following controls were included: yeast suspensions incubated in RPMI-1640 culture medium (positive growth control), or supplemented with dilutions of DMSO, or fluconazole (Sigma-Aldrich, St. Louis, MO, USA) as a commercial drug. To check the background turbidity of reagents and the sterility of the procedure, dilutions of each compound were incubated in RPMI-1640 culture medium, without yeast inoculum. The inoculated plate was incubated at 37 °C for 24 h, and subsequently the optical density at 630 nm was measured by the Multiskan Ascent microplate reader (Thermo Fisher Scientific Inc.). The effectiveness of the compounds was expressed as percent inhibition relative to the positive growth control when the inhibition […] the 50% at 100 µM. The IC50 value was determined by interpolation of the dose–response curves generated by plotting the percentages of growth inhibition, relative to the drug-free control (set to 100% of growth), as a function of the tested concentrations (on a logarithm scale). Statistical analysis was carried out by the nonlinear regression method using GraphPad Prism version 5.0 for Windows (GraphPad Software, San Diego, CA, USA). All assays were performed in triplicate and at least two independent experiments were carried out.

Data set [2] in a line: Cytotoxicity test on Vero cells (WST8/CCK-8 cell viability). The class given is cell-based, African green monkey. The conditions noted are these: African green monkey, Vero cells (ATCC CCL-81), Vero cells, mean and 95% confidence interval. As to the method: African green monkey kidney cells (Vero ATCC CCL-81) were cultured in Eagle’s Minimal Essential Medium (MEM) (Sigma-Aldrich), supplemented with 10% fetal bovine serum (FBS) (Carlo Erba Reagents, Milan, Italy), 100 U/mL penicillin, and 100 µg/mL streptomycin at 37 °C with 5% CO2. For experiments, cells were seeded into 96-well plates at 10^4 cells/well, and incubated at 37 °C for 24 h. Following washes with PBS, cell monolayer was incubated with 100 µL of serially 2-fold dilution of the compound in the range 200–6.25 µM. Both untreated cells and cells incubated with medium containing solvent dilutions were included in each experiment as controls.
The cell viability was assessed by a WST8-based assay according to the manufacturer’s instructions (CCK-8, Cell Counting Kit-8, Dojindo Molecular Technologies, Rockville, MD, USA). After 72 h of incubation, culture medium was removed from each well, the monolayer was washed with PBS, and 100 µL of fresh medium containing 10 µL of CCK-8 solution were added. Following a 2 h at 37 °C, the absorbance was measured at 450/630 nm; data were calculated as the percentage of the cell viability relative to the untreated controls.
For orientation: Tetrazolium dyes change colour on reduction, which living cells bring about.

The mark [3] stands for this setting: Candida albicans, C. albicans ATCC 10231.
Setting [4] is: Candida albicans, ATCC10231, C. albicans ATCC 10231, read-out: IC50.
Where [5] appears, read: Candida albicans, ATCC10231, C. albicans ATCC 10231, read-out: IC50 [μg/mL].
The mark [6] stands for this setting: C. albicans ATCC 10231, read-out: IC50.

Here are results for 25 molecules from publication PMC6359675, “Functionalization of the Chalcone Scaffold for the Discovery of Novel Lead Compounds Targeting Fungal Infections” (Molecules, 2019).

Molecules are shown by their SMILES. Where two headings read alike, the source gives them in different places.

As to `O=C(/C=C/c1ccccc1F)c1cc(Cl)ccc1O` [Compound 2, (E)-1-(5-Chloro-2-hydroxyphenyl)-3-(2-fluorophenyl)prop-2-en-1-one], testing at 100 µM in data set [1] (setting [3]) gave an inhibition of 35.8 ± 1.1%.
Molecule `CN(C)c1ccc(/C=C/C(=O)c2cc(Cl)ccc2O)cc1` [Compound 6, (E)-1-(5-chloro-2-hydroxyphenyl)-3-(4-(dimethylamino)phenyl)prop-2-en-1-one] returned an inhibition at 100 µM in data set [1] (setting [3]) below 1%. In addition, the “antifungal activity against C. albicans growth, in words” value (shortened to “antifungal activity”) in data set [1] (C. albicans ATCC 10231) is “inactive”.
Consider `O=C(/C=C/c1ccc(F)cc1)c1cc(F)ccc1O` [Compound 8, (E)-1-(5-Fluoro-2-hydroxyphenyl)-3-(4-fluorophenyl)prop-2-en-1-one], for which, in data set [1] (setting [3]), the inhibition at 100 µM is below 1%.
For `CN(C)c1ccc(/C=C/C(=O)c2cc(F)ccc2O)cc1` [Compound 9, (E)-3-(4-(Dimethylamino)phenyl)-1-(5-fluoro-2-hydroxyphenyl)prop-2-en-1-one], the inhibition at 100 µM in data set [1] (setting [3]) was 38.5 ± 2.9%.
The same measure, in the same setting: then `C#CCOc1ccc(C(=O)/C=C/c2ccc(F)cc2)c(OC)c1` [Compound 10, (E)-3-(4-fluorophenyl)-1-(2-methoxy-4-(prop-2-yn-1-yloxy)phenyl)prop-2-en-1-one], with 23.3 ± 9.6%.
Molecule `C#CCOc1ccc(C(=O)/C=C/c2ccc(Cl)cc2Cl)c(OC)c1` [Compound 11, (E)-3-(2,4-dichlorophenyl)-1-(2-methoxy-4-(prop-2-yn-1-yloxy)phenyl)prop-2-en-1-one] gave a melting point of 174 to 175 °C. In data set [1] (setting [3]), this molecule registered an inhibition at 100 µM of 9.8 ± 6.7%. For the same molecule, the “antifungal activity” value in data set [1] (C. albicans ATCC 10231) was “inactive”.
Take `C#CCOc1ccc(C(=O)/C=C/c2cccnc2)c(OC)c1` [Compound 12]: the results for the IC50 in data set [1] (setting [4]) and in data set [1] (setting [5]) were 30.7 µM and 9 µg/mL, respectively. Besides, the inhibition at 100 µM in data set [1] (setting [3]) was above 99%. The CC50 at 72 h in data set [2] (read-out: CC50) is 13.6 µM; in data set [2] (read-out: CC50 [μg/mL]), 4 µg/mL.
As for `C#CCOc1ccc(C(=O)/C=C/c2ccncc2)c(OC)c1` [Compound 13], the IC50 in data set [1] (setting [4]) turned out to be 8.1 µM; in data set [1] (setting [5]) it was 2.4 µg/mL. For the same molecule, the inhibition at 100 µM in data set [1] (setting [3]) was above 99%. Moreover, the CC50 at 72 h in data set [2] (read-out: CC50) is 7.3 µM; in data set [2] (read-out: CC50 [μg/mL]), 2.1 µg/mL.
As for `C#CCOc1ccc(C(=O)/C=C/c2ccc(N(C)C)cc2)c(OC)c1` [Compound 15, (E)-3-(4-(dimethylamino)phenyl)-1-(2-methoxy-4-(prop-2-yn-1-yloxy)phenyl)prop-2-en-1-one], the inhibition at 100 µM in data set [1] (setting [3]) is below 1%. The “antifungal activity” value in data set [1] (C. albicans ATCC 10231) is “inactive”.
With `C#CCOc1ccc(C(=O)/C=C/c2cccnc2)c(O)c1` [Compound 16], the figures for the IC50 in data set [1] (setting [4]) and in data set [1] (setting [5]) were 10.8 µM and 3.2 µg/mL, respectively. The inhibition at 100 µM in data set [1] (setting [3]) came out at 91.9 ± 8.2%. Also, the CC50 at 72 h in data set [2] (read-out: CC50) is 17.8 µM; in data set [2] (read-out: CC50 [μg/mL]) it was 5.2 µg/mL.
`C#CCOc1ccc(C(=O)/C=C/c2ccc(N(C)C)cc2)c(O)c1` [Compound 17, (E)-3-(4-(dimethylamino)phenyl)-1-(2-hydroxy-4-(prop-2-yn-1-yloxy)phenyl)prop-2-en-1-one] showed an inhibition at 100 µM in data set [1] (setting [3]) of 11 ± 3.9%. The “antifungal activity” value in data set [1] (C. albicans ATCC 10231) is “inactive”.
In data set [1] (setting [3]), `COc1cc(OCC=C(C)C)ccc1C(=O)/C=C/c1ccc(F)cc1` [Compound 18] gave an inhibition at 100 µM of 34.1 ± 7.5%.
As for `CC(C)=CCOc1ccc(C(=O)/C=C/c2ccc(Cl)cc2Cl)c(O)c1` [Compound 19, (E)-3-(2,4-dichlorophenyl)-1-(2-hydroxy-4-((3-methylbut-2-en-1-yl)oxy)phenyl)prop-2-en-1-one], the melting point is 191 to 193 °C. This molecule also displayed an inhibition at 100 µM in data set [1] (setting [3]) of 5.9 ± 5.7%. Moreover, the “antifungal activity” value in data set [1] (C. albicans ATCC 10231) is “inactive”.
As to `CC(C)=CCOc1ccc(C(=O)/C=C/c2ccncc2)c(O)c1` [Compound 21], the IC50 amounted to 12.6 µM in data set [1] (setting [4]) and 3.7 µg/mL in data set [1] (setting [5]). This molecule also yielded an inhibition at 100 µM in data set [1] (setting [3]) of 96.5 ± 1.4%. Besides, the CC50 at 72 h in data set [2] (read-out: CC50) was determined as 14.8 µM; in data set [2] (read-out: CC50 [μg/mL]), 4.3 µg/mL.
Turning to `C#CCOc1ccc(C(=O)/C=C/c2ccc(F)cc2)c(OCC#C)c1` [Compound 22], in data set [1] (setting [3]), the inhibition at 100 µM was below 1%. For the same molecule, the “antifungal activity” value in data set [1] (C. albicans ATCC 10231) was “inactive”.
With `C#CCOc1ccc(C(=O)/C=C/c2cccnc2)c(OCC#C)c1` [Compound 24], the IC50 came out at 43.8 µM in data set [1] (setting [6]), 26.3 µM in data set [1] (setting [4]) and 12.8 µg/mL in data set [1] (setting [5]). This molecule also yielded an inhibition at 100 µM in data set [1] (setting [3]) of 72 ± 9.8%. In addition, the CC50 at 72 h in data set [2] (read-out: CC50) came to 13 µM; in data set [2] (read-out: CC50 [μg/mL]), 3.8 µg/mL.
As to `C#CCOc1ccc(C(=O)/C=C/c2ccncc2)c(OCC#C)c1` [Compound 25], the IC50 is 26.3 µM in data set [1] (setting [6]), 43.8 µM in data set [1] (setting [4]) and 7.7 µg/mL in data set [1] (setting [5]). Besides, the inhibition at 100 µM in data set [1] (setting [3]) was determined as 81.3 ± 17%. Further, the CC50 at 72 h in data set [2] (read-out: CC50) is 9.1 µM; in data set [2] (read-out: CC50 [μg/mL]), 2.7 µg/mL.
Consider `C#CCOc1ccc(C(=O)/C=C/c2ccc([N+](=O)[O-])cc2)c(OCC#C)c1` [Compound 26], for which the IC50 worked out at 36.8 µM in data set [1] (setting [4]) and 10.8 µg/mL in data set [1] (setting [5]). Also, testing at 100 µM in data set [1] (setting [3]) gave an inhibition of 63.9 ± 3.4%. The CC50 at 72 h stood at 5.1 µM in data set [2] (read-out: CC50) and 1.5 µg/mL in data set [2] (read-out: CC50 [μg/mL]).
`C#CCOc1ccc(C(=O)/C=C/c2ccc(N(C)C)cc2)c(OCC#C)c1` [Compound 27, (E)-1-(2,4-bis(prop-2-yn-1-yloxy)phenyl)-3-(4-(dimethylamino)phenyl)prop-2-en-1-one] registered an inhibition at 100 µM in data set [1] (setting [3]) below 1%. Moreover, in data set [1] (C. albicans ATCC 10231), the “antifungal activity” value was “inactive”.
Take `COc1cc(O)ccc1C(=O)/C=C/c1ccc(F)cc1` [Compound 29, (E)-3-(4-Fluorophenyl)-1-(4-hydroxy-2-methoxyphenyl)prop-2-en-1-one]: in data set [1] (setting [3]), the inhibition at 100 µM amounted to 17.8 ± 4.1%. For the same molecule, the “antifungal activity” value in data set [1] (C. albicans ATCC 10231) is reported as “poor inhibition”.
On the same counts, the results for `COc1cc(OCc2cn(CCO)nn2)ccc1C(=O)/C=C/c1ccc(F)cc1` [Compound 30, (E)-3-(4-fluorophenyl)-1-(4-((1-(2-hydroxyethyl)-1H-1,2,3-triazol-4-yl)methoxy)-2-methoxyphenyl)prop-2-en-1-one] are 9.5 ± 4.8% and “inactive”.
For the molecule `O=C(/C=C/c1ccc(F)cc1)c1ccc(OCCO)cc1` [Compound 31, (E)-3-(4-fluorophenyl)-1-(4-(2-hydroxyethoxy)phenyl)prop-2-en-1-one], the IC50 amounted to 12 µM in data set [1] (setting [4]) and 3.5 µg/mL in data set [1] (setting [5]). This molecule displayed an inhibition at 100 µM in data set [1] (setting [3]) of 97.3 ± 0.5%. Moreover, the CC50 at 72 h in data set [2] (read-out: CC50) came out at 8.3 µM; in data set [2] (read-out: CC50 [μg/mL]), 2.4 µg/mL.
Turning to `CC(C)=CCOc1ccc(C(=O)/C=C/c2ccc(N(C)C)cc2)cc1` [Compound 35, (E)-3-(4-(dimethylamino)phenyl)-1-(4-((3-methylbut-2-en-1-yl)oxy)phenyl)prop-2-en-1-one], in data set [1] (setting [3]), the inhibition at 100 µM worked out at 13.9 ± 3.6%. In data set [1] (C. albicans ATCC 10231), the “antifungal activity” value is “inactive”.
In turn, `C#CCOc1ccc(C(=O)/C=C/c2ccc(N(C)C)cc2)cc1` [Compound 39, (E)-3-(4-(dimethylamino)phenyl)-1-(4-(prop-2-yn-1-yloxy)phenyl)prop-2-en-1-one] yielded an inhibition at 100 µM in data set [1] (setting [3]) below 1%. Moreover, in data set [1] (C. albicans ATCC 10231), the “antifungal activity” value is “inactive”.
`C#CCOc1ccc2c(c1)O/C(=C\c1cccnc1)C2=O` [Compound 40, (Z)-6-(prop-2-yn-1-yloxy)-2-(pyridin-3-ylmethylene)benzofuran-3(2H)-one] displayed an inhibition at 100 µM in data set [1] (setting [3]) below 1%. Besides, the “antifungal activity” value in data set [1] (C. albicans ATCC 10231) was “loss in activity”.

What is called inhibition is the percentage by which the read-out fell short of the control. What is called melting point is the temperature of the solid-liquid transition.
